Measurements from patent US20230117034A1, “PYRAZOLOTRIAZINES” (Bayer Aktiengesellschaft, priority 2019, published 2023).
pIC50: −log10 of the molar value.

Key:
CDK12/CycK = CDK12/CycK (Homo sapiens, UniProt Q9NYV4); experiment: CDK12/CycK high ATP kinase assay (TR-FRET, 2 mM ATP); assay type: biochemical; settings: 2 mM ATP (high ATP); median; read-out: CDK12/CyclinK, 2 mM ATP (high ATP), IC50-[mol/l] (median)
Method: In the context of the present invention, the term “IC50 CDK12 hATP” refers to the IC50 values obtained according to the assay described in this section (2.2) herein below, i.e. the IC50 values for the inhibition of CDK12 at high (2 mM) ATP.
CDK12/CycK-inhibitory activity of compounds of the present invention at 2 millimol/L adenosine-tri-phosphate (ATP) was quantified employing the TR-FRET (TR-FRET=Time Resolved Fluorescence Energy Transfer) based CDK12/CycK activity inhibition assay as described in the following paragraphs.
A complex of human recombinant CDK12 and human recombinant CycK (both N-terminally His-tagged, expression and purification as described above) was used as enzyme. As substrate for the kinase reaction biotinylated peptide biotin-Ahx-KFELLPTPPLSPSRRSGL (C-terminus in amid form) was used which can be purchased e.g. form the company Biosyntan (Berlin-Buch, Germany).
For the assay 50 nanoL of a 100 fold concentrated solution of the test compound in DMSO was pipetted into either a black low volume 384 well microtiter plate or a black 1536 well microtiter plate (both Greiner Bio-One, Frickenhausen, Germany), 2 microL of a solution of CDK12/CycK in aqueous assay buffer [25 millimol/L HEPES pH 7.5, 20 millimol/L MgCl2, 5 millimol/L β-glycerophosphate, 2 millimol/L EGTA, 1.0 millimol/L dithiothreitol, 0.01% (v/v) Nonidet-P40 (Sigma), 0.01% (w/v) bovine serum albumin] were added and the mixture was incubated for 15 min at 22° C. to allow pre-binding of the test compounds to the enzyme before the start of the kinase reaction. Then the kinase reaction was started by the addition of 3 microL of a solution ATP (3.33 millimol/L=>final conc. in the 5 microL assay volume is 2 millimol/L) and substrate (1.67 micromol/L=>final conc. in the 5 microL assay volume is 1 micromol/L) in assay buffer and the resulting mixture was incubated for a reaction time of 60 min at 22° C. The concentration of CDK12/CycK was adjusted depending of the activity of the enzyme lot and was chosen appropriate to have the assay in the linear range, typical concentrations were about 0.75 nanomol/L. The reaction was stopped by the addition of 3 microL of a solution of TR-FRET detection reagents (125 nanomol/L streptavidine-XL665 [Cisbio Bioassays, Codolet, France] and 0.67 nanomol/L anti-Phospho-c-Myc (Ser 62) (E1J4K)-antibody from Cell Signalling [#13748] and 2 nanomol/L LANCE EU-W1024 labeled anti-rabbit IgG antibody [Perkin-Elmer, product no. 0083]) in an aqueous EDTA-solution (133 millimol/L EDTA, 0.27% (w/v) bovine serum albumin in 66.7 millimol/L HEPES pH 7.5).
The resulting mixture was incubated 1 h at 22° C. to allow the formation of complex between the phosphorylated biotinylated peptide and the detection reagents. Subsequently the amount of phosphorylated substrate was evaluated by measurement of the resonance energy transfer from the Eu-chelate to the streptavidine-XL. Therefore, the fluorescence emissions at 620 nm and 665 nm after excitation at 350 nm was measured in a TR-FRET reader, e.g. a Pherastar FS (BMG Labtechnologies, Offenburg, Germany) or a Viewlux (Perkin-Elmer). The ratio of the emissions at 665 nm and at […] was taken as the measure for the amount of phosphorylated substrate. The data were normalised (enzyme reaction without inhibitor=0% inhibition, all other assay components but no enzyme=100% inhibition).

[1] = tested on: BRCA1 mRNA expression in MDA-MB-231 cells; experiment: qRT-PCR assay: BRCA1 mRNA expression in MDA-MB-231; assay type: cell-based, human; settings: Homo sapiens, MDA-MB-231, Inhibition of BRCA1 mRNA expression in MDA-MB-231 cells; median; read-out: RTqPCR-MDA-MB-231, IC50, BRCA1 (median)
Method: 3. qRT-PCR Assay: BRCA, ATR, MCL1 in MDA-MB-231, CAL-120
Tissue cultured human MDA-MB-231 human breast cancer cells were plated in 500 microL per well at 200,000 cells/well in a 24 well microtiter plate. After 24 h, the cells were exposed continuously for 24 h to test substances (substances were added with Tecan HP 0300 Dispenser). RNA was prepared using Qiagen RNeasy MiniKit (#74106), RNA was quantified using a NanoDrop Equipment, and 600 nano gamms of RNA was coverted to cDNA using a SuperScript VILO kit (Thermofisher #11755050) followed by qPCR amplification. BRCA1 and ATR gene expression was measured by RT-qPCR and normalised to GAPDH housekeeping gene expression. qPCR primer sets have been purchased from Thermo Fisher Scientific/Applied Biosystems: BRCA1, #Hs 01556193; ATR, #Hs 00992123; GAPDH, #Hs 03929097.

Sequence of CDK12/CycK (Q9NYV4 with tags, fused parts or gaps): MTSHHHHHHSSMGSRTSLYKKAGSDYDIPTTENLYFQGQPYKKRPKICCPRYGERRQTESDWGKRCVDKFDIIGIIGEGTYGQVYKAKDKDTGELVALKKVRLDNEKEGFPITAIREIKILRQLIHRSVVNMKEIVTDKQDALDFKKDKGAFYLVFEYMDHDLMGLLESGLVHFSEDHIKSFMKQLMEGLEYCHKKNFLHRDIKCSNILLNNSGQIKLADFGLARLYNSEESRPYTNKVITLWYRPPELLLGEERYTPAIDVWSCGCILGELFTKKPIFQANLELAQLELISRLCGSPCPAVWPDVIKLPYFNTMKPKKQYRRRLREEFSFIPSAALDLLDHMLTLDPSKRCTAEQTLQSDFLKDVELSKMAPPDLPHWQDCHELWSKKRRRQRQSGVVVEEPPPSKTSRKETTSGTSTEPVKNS
Sequence of CDK12/CycK (O75909 1-300 partner limits assumed): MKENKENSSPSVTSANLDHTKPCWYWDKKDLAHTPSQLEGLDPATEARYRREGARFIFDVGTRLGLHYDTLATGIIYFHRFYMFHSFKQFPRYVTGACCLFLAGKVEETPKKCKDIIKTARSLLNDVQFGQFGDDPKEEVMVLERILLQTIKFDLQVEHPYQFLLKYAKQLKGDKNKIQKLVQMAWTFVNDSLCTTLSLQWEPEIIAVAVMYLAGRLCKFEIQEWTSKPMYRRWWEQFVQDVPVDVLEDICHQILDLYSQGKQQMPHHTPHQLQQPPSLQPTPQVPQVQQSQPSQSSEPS

pIC50 (CDK12/CycK) | pIC50 [1] | Structure (SMILES)
< 4.70 | 7.61 | C[C@H]1CN(c2nc(NCc3nnc(-c4ccccc4)[nH]3)n3ncc(Br)c3n2)CCN1C.O=CO [Example 122, 8-bromo-2-[(3S)-3,4-dimethylpiperazin-1-yl]-N-[(5-phenyl-4H-1,2,4-triazol-3-yl)methyl]pyrazolo[1,5-a][1,3,5]triazin-4-amine formate]
4.90 | 7.15 | CC1(C)CN(c2nc(NCc3nc4ccccc4[nH]3)n3ncc(C4CC4)c3n2)CCO1 [Example 123, N-[(1H-benzimidazol-2-yl)methyl]-8-cyclopropyl-2-(2,2-dimethylmorpholin-4-yl)pyrazolo[1,5-a][1,3,5]triazin-4-amine]
6.31 | 8.33 | COc1ccc2[nH]c(CNc3nc(N4C[C@@H](C)O[C@@H](C)C4)nc4c(Br)cnn34)nc2c1 [Example 124, 8-bromo-2-[(2R, 6S)-2,6-dimethylmorpholin-4-yl]-N-[(5-methoxy-1H-benzimidazol-2-yl)methyl]pyrazolo[1,5-a][1,3,5]triazin-4-amine]
4.96 | 7.21 | C[C@@H]1CN(c2nc(NCc3nnc(-c4ccccc4)[nH]3)n3ncc(Br)c3n2)C[C@H](C)N1C [Example 125, 8-bromo-N-[(5-phenyl-4H-1,2,4-triazol-3-yl)methyl]-2-[(3R,5S)-3,4,5-trimethylpiperazin-1-yl]pyrazolo[1,5-a][1,3,5]triazin-4-amine]
5.17 | 8.00 | CN1CCN(c2nc(NCc3nc4c(F)cccc4[nH]3)n3ncc(Br)c3n2)CC1 [Example 126, 8-bromo-N-[(4-fluoro-1H-benzimidazol-2-yl)methyl]-2-(4-methylpiperazin-1-yl)pyrazolo[1,5-a][1,3,5]triazin-4-amine]
5.01 | 7.79 | C[C@@H]1CN(c2nc(NCc3nnc(-c4ccccc4)[nH]3)n3ncc(Br)c3n2)C[C@H](C)N1 [Example 127, 8-bromo-2-[(3R,5S)-3,5-dimethylpiperazin-1-yl]-N-[(5-phenyl-4H-1,2,4-triazol-3-yl)methyl]pyrazolo[1,5-a][1,3,5]triazin-4-amine]
4.96 | 7.84 | Brc1cnn2c(NCc3nc4ccccc4[nH]3)nc(N3CCNCC3)nc12 [Example 128, N-[(1H-benzimidazol-2-yl)methyl]-8-bromo-2-(piperazin-1-yl)pyrazolo[1,5-a][1,3,5]triazin-4-amine]
< 4.74 | 6.76 | C[C@@H]1CN(c2nc(NCc3nc4ccccc4[nH]3)n3ncc(Br)c3n2)C[C@H](C)N1C [Example 129, N-(1H-benzimidazol-2-ylmethyl)-8-bromo-2-[(3R,5S)-3,4,5-trimethylpiperazin-1-yl]pyrazolo[1,5-a][1,3,5]triazin-4-amine]
5.07 | 7.42 | C[C@@H]1CN(c2nc(NCc3nnc(-c4ccccc4)[nH]3)n3ncc(Br)c3n2)CCN1C.O=CO [Example 130, 8-bromo-2-[(3R)-3,4-dimethylpiperazin-1-yl]-N-[(5-phenyl-4H-1,2,4-triazol-3-yl)methyl]pyrazolo[1,5-a][1,3,5]triazin-4-amine formate]
< 4.72 | 7.53 | C[C@H]1CN(c2nc(NCc3nc4ccccc4[nH]3)n3ncc(Br)c3n2)CCN1C [Example 132, N-[(1H-benzimidazol-2-yl)methyl]-8-bromo-2-[(3S)-3,4-dimethylpiperazin-1-yl]pyrazolo[1,5-a][1,3,5]triazin-4-amine]
5.15 | 8.37 | CN1CCN(c2nc(NCc3nc4c(F)c(F)ccc4[nH]3)n3ncc(Br)c3n2)CC1 [Example 133, 8-bromo-N-[(4,5-difluoro-1H-benzimidazol-2-yl)methyl]-2-(4-methylpiperazin-1-yl)pyrazolo[1,5-a][1,3,5]triazin-4-amine]
< 4.75 | 8.26 | CN1CCN(c2nc(NCc3nc4cc(F)ccc4[nH]3)n3ncc(Br)c3n2)CC1 [Example 134, 8-bromo-N-[(5-fluoro-1H-benzimidazol-2-yl)methyl]-2-(4-methylpiperazin-1-yl)pyrazolo[1,5-a][1,3,5]triazin-4-amine]
4.84 | 7.52 | C[C@@H]1CN(c2nc(NCc3nc4ccccc4[nH]3)n3ncc(Br)c3n2)CCN1C [Example 135, N-[(1H-benzimidazol-2-yl)methyl]-8-bromo-2-[(3R)-3,4-dimethylpiperazin-1-yl]pyrazolo[1,5-a][1,3,5]triazin-4-amine]
5.39 | 7.47 | CN1CCN(c2nc(NCc3nnc(-c4cccc(F)c4)[nH]3)n3ncc(Br)c3n2)CC1 [Example 136, 8-bromo-N-{[5-(3-fluorophenyl)-4H-1,2,4-triazol-3-yl]methyl}-2-(4-methylpiperazin-1-yl)pyrazolo[1,5-a][1,3,5]triazin-4-amine]
4.89 | 6.69 | CCN1CCN(c2nc(NCc3nc4ccccc4[nH]3)n3ncc(Br)c3n2)CC1 [Example 137, N-[(1H-benzimidazol-2-yl)methyl]-8-bromo-2-(4-ethylpiperazin-1-yl)pyrazolo[1,5-a][1,3,5]triazin-4-amine]
5.88 | 7.79 | C[C@H]1CCCCN1c1nc(NCc2nc3ccccc3[nH]2)n2ncc(Br)c2n1 [Example 141, N-[(1H-benzimidazol-2-yl)methyl]-8-bromo-2-[(2S)-2-methylpiperidin-1-yl]pyrazolo[1,5-a][1,3,5]triazin-4-amine]
4.97 | 7.72 | C[C@@H]1CN(c2nc(NCc3nc4ccccc4[nH]3)n3ncc(Br)c3n2)C[C@H](C)N1 [Example 142, N-(1H-benzimidazol-2-ylmethyl)-8-bromo-2-[(3R,5S)-3,5-dimethylpiperazin-1-yl]pyrazolo[1,5-a][1,3,5]triazin-4-amine]
5.43 | 7.08 | [O-][S+]1CCN(c2nc(NCc3nc4ccccc4[nH]3)n3ncc(Br)c3n2)CC1 [Example 144, 4-(4-{[(1H-benzimidazol-2-yl)methyl]amino}-8-bromopyrazolo[1,5-a][1,3,5]triazin-2-yl)-1lambda^4-thiomorpholin-1-one]
4.90 | 6.72 | N=S1(=O)CCN(c2nc(NCc3nc4ccccc4[nH]3)n3ncc(Br)c3n2)CC1 [Example 145, 4-(4-{[(1H-benzimidazol-2-yl)methyl]amino}-8-bromopyrazolo[1,5-a][1,3,5]triazin-2-yl)-1-imino-1lambda^6-thiomorpholin-1-one]
5.05 | 7.79 | Brc1cnn2c(NCc3nc4ccccc4[nH]3)nc(N3C[C@@H]4CCCN[C@@H]4C3)nc12 [Example 146, N-[(1H-benzimidazol-2-yl)methyl]-8-bromo-2-[(4aS,7aS)-octahydro-6H-pyrrolo[3,4-b]pyridin-6-yl]pyrazolo[1,5-a][1,3,5]triazin-4-amine]
